Tests used:
Type in all cases: functional
[1] = system: Tuta absoluta; assay: Insecticidal activity against second-instar larval stage of Tuta absoluta assessed as mortality at 5 ug/mg applied topically on thoracic tergite after 24 hr (reference value: 1.7%)
[2] = system: Ascia monuste; assay: Insecticidal activity against second-instar larval stage of Ascia monuste orseis assessed as mortality at 5 ug/mg applied topically on thoracic tergite after 24 hr (reference value: 1.7%)
[3] = system: Sitophilus zeamais; assay: Insecticidal activity against […] Sitophilus zeamais assessed as mortality at 5 ug/mg applied topically on thoracic tergite after 24 hr relative to control
[4] = system: Sitophilus zeamais; assay: Insecticidal activity against […] Sitophilus zeamais assessed as mortality at 5 ug/mg applied topically on thoracic tergite after 12 hr relative to control
[5] = system: Musca domestica; assay: Insecticidal activity against second-instar larval stage of Musca domestica (house fly) assessed as mortality at 5 ug/mg applied topically on thoracic tergite after 12 hr relative to control
[6] = system: Musca domestica; assay: Insecticidal activity against second-instar larval stage of Musca domestica (house fly) assessed as mortality at 5 ug/mg applied topically on thoracic tergite after 24 hr relative to control
[7] = system: Ascia monuste; assay: Insecticidal activity against second-instar larval stage of Ascia monuste orseis assessed as mortality at 5 ug/mg applied topically on thoracic tergite after 12 hr relative to control
[8] = system: Periplaneta americana; assay: Insecticidal activity against second-instar nymph stage of Periplaneta americana (American cockroach) assessed as mortality at 5 ug/mg applied topically on thoracic tergite after 12 hr (reference value: 1.7%)
[9] = system: Periplaneta americana; assay: Insecticidal activity against second-instar nymph stage of Periplaneta americana (American cockroach) assessed as mortality at 5 ug/mg applied topically on thoracic tergite after 24 hr (reference value: 1.7%)
[10] = system: Tuta absoluta; assay: Insecticidal activity against second-instar larval stage of Tuta absoluta assessed as mortality at 5 ug/mg applied topically on thoracic tergite after 12 hr (reference value: 1.7%)

SMILES	mortality [1] [%]	mortality [2] [%]	mortality [3] [%]	mortality [4] [%]	mortality [5] [%]	mortality [6] [%]	mortality [7] [%]	mortality [8] [%]	mortality [9] [%]	mortality [10] [%]
COC(=O)[C@H]1[C@H](/C=C/c2ccc(Br)cc2)C1(C)C	25	85	0	0	12.5	22.5	5	55	65	15
COC(=O)[C@H]1[C@H](/C=C\c2ccc(Cl)cc2)C1(C)C	100	90	0	0	20	25	85	92.5	100	100
COC(=O)[C@H]1[C@H](/C=C/c2ccc(Cl)cc2)C1(C)C	72.5	82.5	0	0	17.5	22.5	80	87.5	95	67.5
COC(=O)[C@H]1[C@H](/C=C\c2ccc(F)cc2)C1(C)C	90	92.5	10	7.5	12.5	15	67.5	65	67.5	87.5
COC(=O)[C@H]1[C@H](/C=C/c2ccc(F)cc2)C1(C)C	77.5	90	7.5	5	10	15	65	62.5	67.5	60
COC(=O)[C@H]1[C@H](/C=C\c2ccccc2)C1(C)C	21.9	50	12.5	10	7.5	12.5	7.5	15.6	37.4	12.5
COC(=O)[C@H]1[C@H](/C=C/c2ccccc2)C1(C)C	21.9	50	12.5	10	7.5	12.5	7.5	15.6	37.4	12.5
COC(=O)[C@H]1[C@H](/C=C\c2ccc([N+](=O)[O-])cc2)C1(C)C	67.5	45	0	0	20	27.5	20	10.9	24.3	42.5
COC(=O)[C@H]1[C@H](/C=C/c2ccc([N+](=O)[O-])cc2)C1(C)C	55	36.4	0	0	17.5	25	2.5	10	20	35
COC(=O)[C@H]1[C@H](/C=C\c2ccc(Br)cc2)C1(C)C	18.1	85	0	0	15	25	15	70	72.5	15.6
CC1(C)C(C=C(Cl)Cl)C1C(=O)OCc1cccc(Oc2ccccc2)c1 (stereo not given) [PERMETHRIN]	97.5	100	17.5	17.5	72.5	72.5	100	87.5	97.5	93.2
